Results on 19 molecules are retold here after US20240197888A1, “SOS1 PROTEIN DEGRADERS, PHARMACEUTICAL COMPOSITIONS THEREOF, AND THEIR THERAPEUTIC APPLICATIONS” (BioTheryX, Inc., priority 2021, published 2024).

Common to all, as to type: cell-based
One assay relates to Lovo (G13D) cells. In words: Cell viability assay (CELLTITER-GLO), Lovo cells. Conditions: Homo sapiens, 72 h, Inhibition of cancerous cells, 3 days incubation, luminescence. As to the method: (§1) AsPC-1, H358, and SW48 cells were cultured in RPMI 1640 media supplemented with 10% fetal bovine serum, streptomycin, and penicillin. Lovo and SW480 cells were cultured in DMEM media supplemented with 10% fetal bovine serum, streptomycin, and penicillin. The cell lines were plated in their respective medium supplemented with 2.5% fetal bovine serum, streptomycin, and penicillin. All cell lines were plated in white walled 96-well plates at 2,000 cells/well or 384-well plates at 500 cells/well, except Lovo, which were plated at 4,000 or 1,000 cells/well, respectively. The cells were incubated in DMSO (control) or a compound for 3 days at 37° C. under 5% CO2. A CELLTITER-GLO® reagent ([…] was then added to each well. After a 10 min incubation with shaking, luminescence was measured using an ENVISION® multimode plate reader. IC50 values are summarized in Table 1.
A general note: ATP-based viability assays read luminescence as a measure of living cells.

A further assay deals with SW480 (G12V) cells. As to the kind of experiment: Cell viability assay (CELLTITER-GLO), SW480 cells. Conditions: Homo sapiens, 72 h, Inhibition of cancerous cells, 3 days incubation, luminescence. As to the method: as §1
The next assay relates to SW48 (wt) cells. As to the kind of experiment: Cell viability assay (CELLTITER-GLO), SW48 cells. Conditions: Homo sapiens, 72 h, Inhibition of cancerous cells, 3 days incubation, luminescence. As to the method: as §1
The test system of another assay is H358 (G12C) cells. In words: Cell viability assay (CELLTITER-GLO), H358 cells. Conditions: Homo sapiens, NCI-H358, 72 h, Inhibition of cancerous cells, 3 days incubation, luminescence. The procedure: as §1
In another assay the test system is AsPC-1 (G12D) cells. In words: Cell viability assay (CELLTITER-GLO), AsPC-1 cells. Conditions: Homo sapiens, ASPC1, 72 h, Inhibition of cancerous cells, 3 days incubation, luminescence. The procedure: as §1

Bounds are passed on as bounds.

With `COc1cc2nc(C)nc(N[C@H](C)c3cc(N)cc(C(F)(F)F)c3)c2cc1OC` [reference compound], the IC50 in the assay on Lovo (G13D) cells, with SW480 (G12V) cells, in the assay with SW48 (wt) cells, in the assay with H358 (G12C) cells and with AsPC-1 (G12D) cells was more than 10 µM throughout.

Take `CNCc1ccccc1-c1csc(C(C)Nc2nc(C)nc3cc(OCCCCCCCN4CCC(C(F)(F)F)CC4)c(OC)cc23)c1` (stereo in doubt) [Compound A66, (R)-6-Methoxy-2-methyl-N-(1-(4-(2-((methylamino)methyl)phenyl)thiophen-2-yl)ethyl)-7-((7-(4-(trifluoromethyl)piperidin-1-yl)heptyl)oxy)quinazolin-4-amine]: the IC50 with Lovo (G13D) cells was 1.1 µM; with SW480 (G12V) cells it was 0.55 µM; with SW48 (wt) cells, 0.82 µM; with H358 (G12C) cells, 1.2 µM; in the assay on AsPC-1 (G12D) cells it was 2 µM.

For `CNCc1ccccc1-c1csc([C@H](C)Nc2nc(C)nc3cc(OCCCCCCCN4CCN(C(C)=O)CC4)c(OC)cc23)c1` [Compound A65, (S)-1-(4-(7-((6-Methoxy-2-methyl-4-((1-(4-(2-((methylamino)methyl)phenyl)-thiophen-2-yl)ethyl)amino)quinazolin-7-yl)oxy)heptyl)piperazin-1-yl)ethan-1-one], the IC50 came out at 0.34 µM with Lovo (G13D) cells; 0.38 µM in the assay with SW480 (G12V) cells; 0.53 µM in the assay with SW48 (wt) cells; 1.1 µM in the assay on H358 (G12C) cells; 0.68 µM with AsPC-1 (G12D) cells.

Consider `CNCc1ccccc1-c1csc([C@@H](C)Nc2nc(C)nc3cc(OCCCCCCCN4CCN(C(C)=O)CC4)c(OC)cc23)c1` [Compound A64, (R)-1-(4-(7-((6-Methoxy-2-methyl-4-((1-(4-(2-((methylamino)methyl)phenyl)-thiophen-2-yl)ethyl)amino)quinazolin-7-yl)oxy)heptyl)piperazin-1-yl)ethan-1-one], for which the IC50 in the assay with Lovo (G13D) cells is 0.45 µM; in the assay on SW480 (G12V) cells it was 0.46 µM; with SW48 (wt) cells, 0.68 µM; in the assay on H358 (G12C) cells, 1.4 µM; with AsPC-1 (G12D) cells, 1.1 µM.

Turning to `COc1cc2nc(C)nc(N[C@H](C)c3cccc(Br)c3)c2cc1OC` [reference compound], the IC50 with Lovo (G13D) cells stood at 2.5 µM; in the assay on SW480 (G12V) cells it was 3.4 µM; with SW48 (wt) cells, 3.6 µM; with H358 (G12C) cells, 3.2 µM; with AsPC-1 (G12D) cells it was 5.1 µM.

With `COc1cc2c(N[C@H](C)c3cccc(Br)c3)nc(C)nc2cc1OCCCCCCCN1CCC2(CCNCC2)CC1` [Compound A71, (R)-7-((7-(3,9-Diazaspiro[5.5]undecan-3-yl)heptyl)oxy)-N-(1-(3-bromophenyl)-ethyl)-6-methoxy-2-methylquinazolin-4-amine], the IC50 with Lovo (G13D) cells was found to be 1.4 µM; in the assay with SW480 (G12V) cells, 1.5 µM; in the assay on SW48 (wt) cells it was 1.4 µM; in the assay with H358 (G12C) cells, 2.8 µM; in the assay with AsPC-1 (G12D) cells, 2.7 µM.

As to `CNCc1ccccc1-c1csc([C@H](C)Nc2nc(C)nc3cc(OCCCCCOC(=O)CC45CC6CC(CC(C6)C4)C5)c(OC)cc23)c1` [Compound A46, 5-((6-Methoxy-2-methyl-4-(((S)-1-(4-(2-((methylamino)methyl)phenyl)thiophen-2-yl)ethyl)amino)quinazolin-7-yl)oxy)pentyl 2-((3r,5r,7r)-adamantan-1-yl)acetate], the IC50 turned out to be 1.5 µM with Lovo (G13D) cells, 1.2 µM with SW480 (G12V) cells, 1.1 µM with SW48 (wt) cells and 1.5 µM in the assay with H358 (G12C) cells.

With `COc1cc2c(N[C@H](C)c3cccc(Br)c3)nc(C)nc2cc1OCCCCCCCN1CCC(C(F)(F)F)CC1` [Compound A24, (R)—N-(1-(3-Bromophenyl)ethyl)-6-methoxy-2-methyl-7-((7-(4-(trifluoromethyl)-piperidin-1-yl)heptyl)oxy)quinazolin-4-amine], the IC50 with Lovo (G13D) cells worked out at 0.46 µM; in the assay on SW480 (G12V) cells it was 0.71 µM; in the assay with SW48 (wt) cells it was 0.59 µM; in the assay with H358 (G12C) cells it was 1.2 µM.

As to `CNCc1ccccc1-c1csc([C@@H](C)Nc2nc(C)nc3cc(OCCCCCOC(=O)CC45CC6CC(CC(C6)C4)C5)c(OC)cc23)c1` [Compound A45, 5-((6-Methoxy-2-methyl-4-(((R)-1-(4-(2-((methylamino)methyl)phenyl)thiophen-2-yl)ethyl)amino)quinazolin-7-yl)oxy)pentyl 2-((3r,5r,7r)-adamantan-1-yl)acetate], the IC50 in the assay with Lovo (G13D) cells was found to be 0.45 µM; in the assay with SW480 (G12V) cells, 0.57 µM; with SW48 (wt) cells, 1 µM; with H358 (G12C) cells it was 0.85 µM.

On to `CNCc1ccccc1-c1csc([C@H](C)Nc2nc(C)nc3cc(OCCNC(=O)CC45CC6CC(CC(C6)C4)C5)c(OC)cc23)c1` [Compound A52, 2-((3r,5r,7r)-Adamantan-1-yl)-N-(2-((6-methoxy-2-methyl-4-(((S)-1-(4-(2-((methylamino)methyl)phenyl)thiophen-2-yl)ethyl)amino)quinazolin-7-yl)oxy)ethyl)acetamide], for which the IC50 in the assay with Lovo (G13D) cells was determined as 0.43 µM; in the assay with SW480 (G12V) cells it was 0.61 µM; in the assay with SW48 (wt) cells it was 0.89 µM; in the assay on H358 (G12C) cells, 1.2 µM.

Turning to `COc1cc2c(N[C@H](C)c3cccc(Br)c3)nc(C)nc2cc1OCCCCCCCN1CCCCC1=O` [Compound A25, (R)-1-(7-((4-((1-(3-Bromophenyl)ethyl)amino)-6-methoxy-2-methylquinazolin-7-yl)oxy)heptyl)piperidin-2-one], the IC50 in the assay on Lovo (G13D) cells is 0.5 µM; in the assay with SW480 (G12V) cells, 0.78 µM; with SW48 (wt) cells, 1.8 µM; in the assay with H358 (G12C) cells it was 1.4 µM.

For `CNCc1ccccc1-c1csc([C@H](C)Nc2nc(C)nc3cc(OCCCCCCC(C)(C)C)c(OC)cc23)c1` [Compound A59, (S)-7-((7,7-Dimethyloctyl)oxy)-6-methoxy-2-methyl-N-(1-(4-(2-((methylamino)-methyl)phenyl)thiophen-2-yl)ethyl)quinazolin-4-amine], the IC50 in the assay on AsPC-1 (G12D) cells was determined as 3.1 µM.

Take `COc1cc2c(N[C@H](C)c3cccc(Br)c3)nc(C)nc2cc1OCCCCc1ccncc1` [Compound A73, (R)—N-(1-(3-Bromophenyl)ethyl)-6-methoxy-2-methyl-7-(4-(pyridin-4-yl)-butoxy)quinazolin-4-amine]: the IC50 in the assay on Lovo (G13D) cells was 1.4 µM; in the assay with SW480 (G12V) cells, 1 µM; with SW48 (wt) cells, 4.1 µM; in the assay on H358 (G12C) cells it was 2.6 µM.

For the molecule `CNCc1ccccc1-c1csc([C@@H](C)Nc2nc(C)nc3cc(OCCOCCOC(=O)CC45CC6CC(CC(C6)C4)C5)c(OC)cc23)c1` [Compound A47, 2-(2-((6-Methoxy-2-methyl-4-(((R)-1-(4-(2-((methylamino)methyl)phenyl)-thiophen-2-yl)ethyl)amino)quinazolin-7-yl)oxy)ethoxy)ethyl 2-((3r,5r,7r)-adamantan-1-yl)acetate], the IC50 in the assay with Lovo (G13D) cells amounted to 0.43 µM; in the assay with SW480 (G12V) cells, 0.58 µM; in the assay with SW48 (wt) cells, 0.64 µM; in the assay on H358 (G12C) cells it was 0.76 µM.

As to `CNCc1ccccc1-c1csc([C@@H](C)Nc2nc(C)nc3cc(OCCOCCNC(=O)CC45CC6CC(CC(C6)C4)C5)c(OC)cc23)c1` [Compound A5, 2-((3r,5r,7r)-adamantan-1-yl)-N-(2-(2-((6-methoxy-2-methyl-4-(((R)-1-(4-(2-((methylamino)methyl)phenyl)thiophen-2-yl)ethyl)amino)quinazolin-7-yl)oxy)ethoxy)ethyl)-acetamide], the IC50 in the assay on Lovo (G13D) cells was determined as 0.45 µM; in the assay with SW480 (G12V) cells, 0.55 µM; with SW48 (wt) cells it was 0.9 µM; in the assay on H358 (G12C) cells it was 0.91 µM.

Turning to `COc1cc2c(N[C@H](C)c3cccc(Br)c3)nc(C)nc2cc1OCCCCCCCN1CCN(C(C)=O)CC1` [Compound A26, (R)-1-(4-(7-((4-((1-(3-Bromophenyl)ethyl)amino)-6-methoxy-2-methyl-quinazolin-7-yl)oxy)heptyl)piperazin-1-yl)ethan-1-one], the IC50 in the assay with Lovo (G13D) cells was 0.54 µM; with SW480 (G12V) cells it was 0.58 µM; with SW48 (wt) cells it was 0.6 µM; with H358 (G12C) cells, 1.2 µM.

For `COc1cc2c(N[C@H](C)c3cccc(Br)c3)nc(C)nc2cc1OCCCCCCCN1C(C)(C)CCCC1(C)C` [Compound A74, (R)—N-(1-(3-Bromophenyl)ethyl)-6-methoxy-2-methyl-7-((7-(2,2,6,6-tetramethyl-piperidin-1-yl)heptyl)oxy)quinazolin-4-amine], the IC50 in the assay with Lovo (G13D) cells worked out at 0.34 µM; with SW480 (G12V) cells, 0.42 µM; in the assay with SW48 (wt) cells, 0.56 µM; in the assay on H358 (G12C) cells it was 0.65 µM.

`COc1cc2c(N[C@H](C)c3cccc(Br)c3)nc(C)nc2cc1OCCCCCCCN1CCOCC1` [Compound A75, (R)—N-(1-(3-Bromophenyl)ethyl)-6-methoxy-2-methyl-7-((7-morpholinoheptyl)-oxy)quinazolin-4-amine]: the IC50 came out at 0.25 µM in the assay on Lovo (G13D) cells, 0.59 µM in the assay with SW480 (G12V) cells, 0.66 µM in the assay with SW48 (wt) cells and 0.73 µM in the assay with H358 (G12C) cells.

`COc1cc2c(N[C@H](C)c3cccc(Br)c3)nc(C)nc2cc1OCCCCCCCc1ccncc1` [Compound A43, (R)—N-(1-(3-Bromophenyl)ethyl)-6-methoxy-2-methyl-7-((7-(pyridin-4-yl)heptyl)-oxy)quinazolin-4-amine]: the IC50 in the assay with Lovo (G13D) cells worked out at 2.2 µM; in the assay with SW480 (G12V) cells, 1.9 µM; in the assay with SW48 (wt) cells it was 3.6 µM; in the assay with H358 (G12C) cells, 5.4 µM.

For orientation: IC50 means the midpoint of a concentration-inhibition curve. Low readings indicate greater potency, high ones weaker potency.
